Data reported in patent US12577197B2, “Methods of preparing N6-((2-azidoethoxy)carbonyl)lysine” (SANOFI, priority 2019, dated 2026).
Where “and” joins values, the source holds several entries; their conditions need not be identical. Equal values may be shown once.

How the values were obtained:
[1] = Effect of pH on solubility in water (HPLC of supernatant); type: physicochemical
Method: To further purify N^6-((2-azidoethoxy)carbonyl)-L-lysine (Formula (VIa)), a suspension of N^6-((2-azidoethoxy)carbonyl)-L-lysine (Formula (VIa)) in water was prepared, followed by addition of HC1 to form a solution. Neutralization of the resulting solution with ammonium hydroxide reprecipitates the product and further purges the material of residual impurities, which remain in solution. In order to improve product yield, the effect of pH on the solubility of N^6-((2-azidoethoxy)carbonyl)-L-lysine (Formula (VIa)) was examined. Briefly, this study involved suspending N^6-((2-azidoethoxy)carbonyl)-L-lysine (Formula (VIa)) in water, progressively basifying the mixture, and determining the amount of N^6-((2-azidoethoxy)carbonyl)-L-lysine (Formula (VIa)) in the supernatant as a function of pH.
N^6-((2-azidoethoxy)carbonyl)-L-lysine (Formula (VIa)) (0.95 g) was charged into a 20 mL glass scintillation vial along with water (7.2 g). The resulting suspension was thoroughly mixed on a vortex apparatus for 60 seconds, then allowed to settle for 5 minutes. The pH of the supernatant was measured at 4.44 and an aliquot was taken and diluted with HPLC eluent (H2O:CH3CN 1:1, 0.1% TFA). The sample was analyzed by HPLC (column: ACE Excel 3 Super C18, 4.6×150 mm, 3.0 μm, flow rate: 1.2 mL/min, phase A: 0.1% TFA in water, phase B: 0.1% TFA in acetonitrile) and the content of N^6-((2-azidoethoxy)carbonyl)-L-lysine (Formula (VIa)) was calculated based on HPLC analysis of Formula (VIa) standards.
The contents of the scintillation vial were basified by addition of a drop of 28-30% ammonium hydroxide, and the suspension was vortexed, allowed to decant, and the supernatant was again sampled and analyzed by HPLC.

[2] = Time to maximum rate (TMR) estimated from phi factor corrected ARC data; type: physicochemical
Description: Test data obtained from the ARC can be used to estimate the self-accelerating decomposition temperature of a sample (J. K. Wilberforce, “The Use of the Accelerating Rate calorimeter to determine the SADT of organic peroxides,” Columbia Scientific Industries, Milton Keynes; Harold G. Fisher and David D. Goetz, “Determination of self-accelerating decomposition temperature using the accelerating rate calorimeter,” J. Loss Prev. Process Ind., 1991, Vol 4., 305-316). Time to maximum rate (TMR) is defined as the amount of time that is needed for a reaction to reach its maximum self-heating rate or pressure rate in a thermal runaway reaction. TMR data was extracted from the phi factor corrected test data and a plot of Ln(TMR) against −1000/T was generated (FIG. 4).
The following equation was taken from FIG. 4 to allow the determination of the time to maximum rate as a function of temperature: Ln(TMR(s))=−16.389*(−1000/(T(K)))−29.262 The TMR increases as the batch temperature decreases. The measured exotherm was used to estimate the TMR. The results are provided only as a reference, as it is based on a single ARC test and not a detailed kinetic study (FIG. 5).

[3] = Accelerating rate calorimetry (ARC) study, heat-wait-search mode; settings: for Onset temperature of exotherm / Onset of exothermic activity: HWS mode, adiabatic, air, titanium bomb; for ΔT adiabatic / Adiabatic Temperature Rise (phi corrected): phi factor 1.6684

## [N-]=[N+]=NCCOC(=O)NCCCC[C@H](N)C(=O)O [Formula (VIa), N^6-((2-azidoethoxy)carbonyl)-L-lysine]
[1]; Supernatant 1, pH 4.44, 0.95 g suspended in 7.2 g water
  Amount of Formula (VIa) in supernatant: 36 mg
[1]; Supernatant 2, pH 8.13, basified with ammonium hydroxide
  Amount of Formula (VIa) in supernatant: 37 mg
[1]; Supernatant 3, pH 8.58
  Amount of Formula (VIa) in supernatant: 38 mg
[1]; Supernatant 4, pH 8.73
  Amount of Formula (VIa) in supernatant: 40 mg
[1]; Supernatant 5, pH 8.86
  Amount of Formula (VIa) in supernatant: 42 mg
[1]; Supernatant 6, pH 9.00
  Amount of Formula (VIa) in supernatant: 44 mg
[1]; Supernatant 7, pH 9.26
  Amount of Formula (VIa) in supernatant: 44 mg
[1]; pH range from 4 to 8
  amount of product in supernatant of a saturated aqueous solution: roughly the same amount of product in its supernatant

## CC(C)(C)OC(=O)N[C@@H](CCCCNC(=O)OCCN=[N+]=[N-])C(=O)OC(C)(C)C [Formula (IIIa)]
[2]; 122.0 ° C.
  Time to maximum rate (TMR): 48.3 h
[2]; 129.0 ° C.
  Time to maximum rate (TMR): 23.5 h
[2]; 140.0 ° C.
  Time to maximum rate (TMR): 7.9 h
[2]; 160.0 ° C. (onset temperature of 2nd exotherm)
  Time to maximum rate (TMR): 1.3 h
[3]
  Maximum pressure of test: 157.1 Bar gauge
  Maximum pressure rate of test: 2.756 Bar min^−1
  Maximum self-heating rate of test: 2.10 K min^−1
  Temperature at maximum pressure rate: 208.5 °C
  Temperature at maximum self-heat rate: 211.5 °C
[3]; 1st exotherm
  Final temperature of exotherm / End of exothermic activity: 100.79 °C
  ΔT: 0.65 °C
  Onset temperature of exotherm / Onset of exothermic activity: 100.14 °C
  ΔT adiabatic / Adiabatic Temperature Rise (phi corrected): 1.08 °C
[3]; 1st exotherm, sample heat capacity estimated 2.10
  ΔH reaction: −2.27 Joule/gram
[3]; 2nd (major) exotherm
  Onset temperature of exotherm / Onset of exothermic activity: 160.5 °C and 160.48 °C
[3]; 2nd exotherm
  Final temperature of exotherm / End of exothermic activity: 227.19 °C
  ΔT: 66.71 °C
  ΔT adiabatic / Adiabatic Temperature Rise (phi corrected): 111.29 °C
[3]; 2nd exotherm, sample heat capacity estimated 2.10
  ΔH reaction: −233.71 Joule/gram
[3]; Exotherm 1
  Heat of reaction (exothermic): -2.27 J/g
[3]; Exotherm 2
  Heat of reaction (exothermic): -233.71 J/g
[3]; Value column (both exotherms together)
  ΔH reaction: −235.99 Joule/gram
[3]; after cooling to near ambient temperature at 30.7° C.
  non-condensable gas remained in the bomb after completion of the test: 35.5 Bar gauge
[3]; all exotherms
  Total heat released during the ARC test (all exotherms): -235.98 J/g
[3]; at 208.5° C.
  maximum pressure rate: 2.756 bar/min
[3]; at 211.5° C.
  maximum self-heat rate recorded: 2.098 K/min
[3]; conclusion from ARC and TMR data
  thermal hazard in preparing the compound: no significant thermal hazard
[3]; test stopped by pressure trip
  Maximum temperature of test: 379.2 °C
[3]; two exotherms
  total heat of the two exotherms: 236.0 J/g
